Measured values published in ChEMBL document CHEMBL1136630, “Cancer chemotherapy: a SN-38 (7-ethyl-10-hydroxycamptothecin) glucuronide prodrug for treatment by a PMT (Prodrug MonoTherapy) strategy” (Bioorg Med Chem Lett, 2003).

Assays:
HT-29 [1] = experiment: In vitro inhibitory concentration required against HT-29 human colon cancer cells in the presence of beta-D-glucuronidase; format: functional, cell-based
HT-29 [2] = experiment: In vitro inhibitory concentration required against HT-29 human colon cancer cells; format: functional, cell-based
[3] = Half-life time was determined; format: ADME

Structure (SMILES)	IC50 (HT-29 [1])	IC50 (HT-29 [2])	half-life [3]
CCc1c2c(nc3ccc(OC(=O)N(C)c4cc([N+](=O)[O-])ccc4OC4CC(C(=O)O)C(O)C(O)C4O)cc13)C1CC3=C(COC(=O)[C@]3(O)CC)C(=O)N1C2 (some centres undefined)	26 nM	1980 nM	12.7 min
CCc1c2c(nc3ccc(O)cc13)-c1cc3c(c(=O)n1C2)COC(=O)[C@]3(O)CC [7-ETHYL-10-HYDROXYCAMPTOTHECIN]		27.3 nM	
